{"source": "patent US12195427B2", "about": "“MASP-2 inhibitors and methods of use” (priority 2018, dated 2025)", "target": "MASP-2 CCP2-SP (Homo sapiens (Human), UniProt O00187)", "sequence (O00187 445-686)": "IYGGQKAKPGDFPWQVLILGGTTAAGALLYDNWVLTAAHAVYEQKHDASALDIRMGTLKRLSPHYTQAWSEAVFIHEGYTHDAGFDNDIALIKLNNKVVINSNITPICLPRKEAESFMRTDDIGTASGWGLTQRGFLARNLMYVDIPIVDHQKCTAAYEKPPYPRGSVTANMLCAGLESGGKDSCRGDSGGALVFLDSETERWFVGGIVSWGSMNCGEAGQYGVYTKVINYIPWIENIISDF", "sequence (O00187 364-432 partner)": "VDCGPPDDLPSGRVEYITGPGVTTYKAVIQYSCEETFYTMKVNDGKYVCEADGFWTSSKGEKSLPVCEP", "experiment": "MASP-2 co-crystallization, X-ray crystallography and structure analysis (H-bonds, van der Waals contacts);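 for Ligand-pharmacophore element distance, pharmacophore element C2: distance from averaged pharmacophore element to bound ligand; missing value means element absent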;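 for Ligand-pharmacophore element distance, pharmacophore element C3: distance from averaged pharmacophore element to bound ligand; missing value means element absent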;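 for Ligand-pharmacophore element distance, pharmacophore element C4: distance from averaged pharmacophore element to bound ligand; missing value means element absent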;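 for Ligand-pharmacophore element distance, pharmacophore element C5: distance from averaged pharmacophore element to bound ligand; missing value means element absent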", "design": "van der Waals contact distance, MASP-2 HIS 483 atom CD2 / van der Waals contact distance, MASP-2 HIS 483 atom NE2 / van der Waals contact distance, SER 654 C to compound atom / van der Waals contact distance, SER 654 O to compound atom / van der Waals contact distance, TRP 655 C to compound atom / van der Waals contact distance, MASP-2 GLY 528 atom CA / van der Waals contact distance TRP 655 atom CZ3 / van der Waals contact distance TRP 655 atom N / van der Waals contact distance TRP 655 atom CE3 / van der Waals contact distance GLY 656 atom C / van der Waals contact distance GLY 656 atom CA / van der Waals contact distance GLY 656 atom O / van der Waals contact distance, MASP-2 TYR 607 atom CD1 / van der Waals contact distance, MASP-2 PRO 606 atom O / d(C3,CA1) / d(CA1,N1)2 / d(H4,O1) / d(H4,O2) / d(O1,O2) / d(CA1,O2) / d(CA6,O1) / d(CA6,O2) / d(CA1,C5) / d(O2,H3) / d(N2,C2) / d(CA5,N2) / d(N2,C4) / d(N2,C6) / d(N2,CA3) / d(N2,O3) / d(O4,H2): unit not given beside the values", "conditions": "for H-bond distance to MASP-2 ASP 627 atom OD1: ASP 627 OD1; for H-bond distance to MASP-2 GLY 656 atom N: GLY 656 N; for H-bond distance to MASP-2 SER 628 atom OG: SER 628 OG; for H-bond distance to MASP-2 SER 654 atom O: SER 654 O; for H-bond distance to MASP-2 SER 657 atom O: SER 657 O; for van der Waals contact distance, MASP-2 HIS 483 atom CD2: Table A2-1; for van der Waals contact distance, VAL 653 CG1 to compound atom: Table A2-11", "outline": "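First, CCP2-SP constructs with or without a 6His tag are produced in E. coli. Crystals are then soaked once or twice with inhibitor, cryoprotected in 20% glycerol or frozen directly, and diffracted at synchrotron beamlines. Phasing uses molecular replacement with parts of 1Q3X.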", "key": {"[1]": {"conditions": "Table A5-1 pharmacophore: distance between elements, S2/S1 region"}, "[2]": {"conditions": "Table A5-2 pharmacophore distance, S3/S4 region"}, "[3]": {"conditions": "Table A7-1, between pharmacophore elements of the bound compound"}, "[4]": {"conditions": "Table A8-6, nearest protein atom in cell to the left"}}, "note": "Counter-ions that a name gives are not always drawn."}
{"smiles": "C[C@H](NC(=O)[C@H](N)C1Cc2ccccc2C1)C(=O)NCc1ccc2c(N)nccc2c1", "note": "[compound 1088, (S)-2-((R)-2-Amino-2-(2,3-dihydro-1H-inden-2-yl)acetamido)-N-((1-aminoisoquinolin-6-yl)methyl)propanamide Dihydrochloride]", "values": [{"measurement": "H-bond distance to MASP-2 ASP 627 atom OD1", "setting": "Table A1 (H-Bonds)", "value": 2.91}, {"measurement": "H-bond distance to MASP-2 ASP 627 atom OD2", "setting": "Table A1 (H-Bonds), ASP 627 OD2", "value": 3.16}, {"measurement": "H-bond distance to MASP-2 GLY 656 atom N", "setting": "Table A1 (H-Bonds)", "value": 3.22}, {"measurement": "H-bond distance to MASP-2 SER 628 atom OG", "setting": "Table A1 (H-Bonds)", "value": 3.16}, {"measurement": "H-bond distance to MASP-2 SER 654 atom O", "setting": "Table A1 (H-Bonds)", "value": 2.89}, {"measurement": "van der Waals contact distance, MASP-2 PRO 606 atom C", "setting": "Table A2-4", "value": 3.89}, {"measurement": "van der Waals contact distance, MASP-2 TYR 607 atom CD1", "setting": "Table A2-4", "value": 3.82}, {"measurement": "van der Waals contact distance, MASP-2 amino acid atom to compound atom", "setting": "Table A2-5: TYR 607 (CE1, CE2, OH), PRO 608 (CD, CG), SER 611 (CA)", "value": 3.73}, {"measurement": "van der Waals contact distance, MASP-2 amino acid atom to compound atom", "setting": "Table A2-9, ARG 630, AA atoms CG, CZ", "value": 3.79}, {"measurement": "van der Waals contact distance SER 657 atom C", "setting": "Table A2-14, MASP-2 SER 657 C, columns c12-c13 (inferred)", "value": 3.64}]}
{"smiles": "N=C(N)c1ccc(CNC(=O)[C@@H]2CCN2C(=O)[C@H](NCC(=O)O)C2Cc3ccccc3C2)cc1", "note": "[compound 1129]", "values": [{"measurement": "H-bond distance to MASP-2 ASP 627 atom OD1", "setting": "Table A1 (H-Bonds)", "value": 2.79}, {"measurement": "H-bond distance to MASP-2 GLN 665 atom OE1", "setting": "Table A1 (H-Bonds), GLN 665 OE1", "value": 2.76}, {"measurement": "H-bond distance to MASP-2 GLY 656 atom N", "setting": "Table A1 (H-Bonds)", "value": 2.93}, {"measurement": "H-bond distance to MASP-2 SER 628 atom OG", "setting": "Table A1 (H-Bonds)", "value": 2.86}, {"measurement": "H-bond distance to MASP-2 SER 654 atom O", "setting": "Table A1 (H-Bonds)", "value": 2.84}, {"measurement": "H-bond distance to MASP-2 SER 657 atom O", "setting": "Table A1 (H-Bonds)", "value": 2.92}, {"measurement": "van der Waals contact distance, MASP-2 HIS 483 atom CD2", "value": 3.75}, {"measurement": "van der Waals contact distance, MASP-2 PHE 529 atom CE1", "setting": "Table A2-3", "value": 3.52}, {"measurement": "van der Waals contact distance, MASP-2 PRO 606 atom C", "setting": "Table A2-4", "value": 3.86}, {"measurement": "van der Waals contact distance, MASP-2 amino acid atom to compound atom", "setting": "Table A2-9 second part, ARG 630, AA atoms N, NE, NH1", "value": 3.69}, {"measurement": "van der Waals contact distance, VAL 653 CG1 to compound atom", "value": 3.9}, {"measurement": "van der Waals contact distance GLY 656 atom C", "setting": "Table A2-13, MASP-2 GLY 656 C", "value": 3.54}, {"measurement": "Ligand-pharmacophore element distance, pharmacophore element C2", "setting": "Table A4-1, element C2", "value": 3.15}, {"measurement": "Ligand-pharmacophore element distance, pharmacophore element C3", "setting": "Table A4-1, element C3", "value": 0}, {"measurement": "Ligand-pharmacophore element distance, pharmacophore element C4", "setting": "Table A4-1, element C4", "value": 0}, {"measurement": "Ligand-pharmacophore element distance, pharmacophore element C5", "setting": "Table A4-1, element C5", "value": 0}, {"measurement": "Ligand-pharmacophore element distance, pharmacophore element C6", "setting": "Table A4-1, element C6", "value": 0}, {"measurement": "Ligand-pharmacophore element distance, pharmacophore element C7", "setting": "Table A4-1, element C7", "value": 0}, {"measurement": "Ligand-pharmacophore element distance, pharmacophore element CA1", "setting": "Table A4-1, element CA1", "value": 0.35}, {"measurement": "Ligand-pharmacophore element distance, pharmacophore element CA2", "setting": "Table A4-1, element CA2", "value": 0}, {"measurement": "Ligand-pharmacophore element distance, pharmacophore element CA3", "setting": "Table A4-1, element CA3", "value": 0}, {"measurement": "Ligand-pharmacophore element distance, pharmacophore element CA4", "setting": "Table A4-1, element CA4", "value": 0}, {"measurement": "Ligand-pharmacophore element distance, pharmacophore element CA5", "setting": "Table A4-1, element CA5", "value": 0.67}, {"measurement": "Ligand-pharmacophore element distance, pharmacophore element CA6", "setting": "Table A4-1, element CA6", "value": 0}, {"measurement": "Ligand-pharmacophore element distance, pharmacophore element H1", "setting": "Table A4-2, element H1", "value": 0}, {"measurement": "Ligand-pharmacophore element distance, pharmacophore element H2", "setting": "Table A4-2, element H2", "value": 0}, {"measurement": "Ligand-pharmacophore element distance, pharmacophore element H3", "setting": "Table A4-2, element H3", "value": 1.34}, {"measurement": "Ligand-pharmacophore element distance, pharmacophore element H4", "setting": "Table A4-2, element H4", "value": 3.79}, {"measurement": "Ligand-pharmacophore element distance, pharmacophore element N1", "setting": "Table A4-2, element N1", "value": 1.8}, {"measurement": "Ligand-pharmacophore element distance, pharmacophore element N2", "setting": "Table A4-2, element N2", "value": 1.8}, {"measurement": "Ligand-pharmacophore element distance, pharmacophore element O1", "setting": "Table A4-2, element O1", "value": 0.39}, {"measurement": "Ligand-pharmacophore element distance, pharmacophore element O2", "setting": "Table A4-2, element O2", "value": 0.58}, {"measurement": "Ligand-pharmacophore element distance, pharmacophore element O3", "setting": "Table A4-2, element O3", "value": 0}, {"measurement": "Ligand-pharmacophore element distance, pharmacophore element O4", "setting": "Table A4-2, element O4", "value": 0}, {"measurement": "d(CA1,N1)", "setting": "[1]", "value": 3.60}, {"measurement": "d(CA1,O1)", "setting": "[1]", "value": 4.47}, {"measurement": "d(CA1,O2)", "setting": "[1]", "value": 4.37}, {"measurement": "d(H4,O1)", "setting": "[1]", "value": 5.00}, {"measurement": "d(H4,O2)", "setting": "[1]", "value": 4.63}, {"measurement": "d(O1,O2)", "setting": "[1]", "value": 3.49}, {"measurement": "d(CA5,N2)", "setting": "[2]", "value": 5.54}, {"measurement": "d(N2,C2)", "setting": "[2]", "value": 2.76}, {"measurement": "d(O2,H3)", "setting": "[2]", "value": 2.83}, {"measurement": "d(O2,N2)", "setting": "[2]", "value": 3.19}, {"measurement": "a(CA1, O1, O2)", "setting": "Table A6-1 pharmacophore angle", "value": 111.77}, {"measurement": "a(O1, O2, H4)", "setting": "Table A6-1 pharmacophore angle", "value": 137.67}, {"measurement": "A(N1, CA1, O1) a)", "setting": "Table A6-1 pharmacophore angle, all compounds with protonatable center N1 except Methyl-amino-pyridine", "value": 164.78}, {"measurement": "a(O1, O2, H3)", "setting": "Table A6-2 pharmacophore angle", "value": 122.63}, {"measurement": "a(O1, O2, N2)", "setting": "Table A6-2 pharmacophore angle", "value": 127.76}, {"measurement": "a(O2, N2, C2)", "setting": "Table A6-2 pharmacophore angle", "value": 110.31}, {"measurement": "Pharmacophore torsion angle a(H4, O1, O2, H3)", "setting": "[3]", "value": 104.70}, {"measurement": "Pharmacophore torsion angle a(H4, O1, O2, N2)", "setting": "[3]", "value": 133.45}, {"measurement": "Pharmacophore torsion angle a(N1, CA1, O2, H4)", "setting": "[3]", "value": "−139.56"}, {"measurement": "Pharmacophore torsion angle a(O1, H4, O2, CA1)", "setting": "[3]", "value": "−65.27"}, {"measurement": "Pharmacophore torsion angle a(O1, O2, N2, C2)", "setting": "[3]", "value": 95.54}, {"measurement": "Pharmacophore torsion angle a(O1, O2, N2, CA5)", "setting": "Table A7-2, between pharmacophore elements of the bound compound", "value": 145.95}, {"measurement": "Pharmacophore protein distance to MET_658 (first MET_658 column)", "setting": "Table A8-6, 6th residue column, nearest protein atom in cell to the left", "value": 2.85}, {"measurement": "Pharmacophore protein distance to MET_658 (second MET_658 column)", "setting": "Table A8-6, 9th residue column, nearest protein atom in cell to the left", "value": 3.11}, {"measurement": "Pharmacophore protein distance to GLY_528", "setting": "[4]", "value": 3.51}, {"measurement": "Pharmacophore protein distance to PHE_529", "setting": "[4]", "value": 2.98}, {"measurement": "Pharmacophore protein distance to PRO_608", "setting": "[4]", "value": 4.05}, {"measurement": "Pharmacophore protein distance to SER_611", "setting": "[4]", "value": 2.58}, {"measurement": "Pharmacophore protein distance to TRP_655", "setting": "Table A8-6, pharmacophore elements C6, CA3, O3, H1, nearest protein atom in cell to the left", "value": 3.31}]}
{"smiles": "C[C@H](NC(=O)[C@@H](CCc1ccccc1)NCCCc1ccc(O)cc1)C(=O)NCc1ccc(C(=N)N)cc1", "note": "[compound 1145]", "values": [{"measurement": "H-bond distance to MASP-2 GLY 656 atom N", "setting": "Table A1 (H-Bonds)", "value": 3.09}, {"measurement": "H-bond distance to MASP-2 GLY 656 atom O", "setting": "Table A1 (H-Bonds), GLY 656 O", "value": 2.58}, {"measurement": "H-bond distance to MASP-2 SER 628 atom O", "setting": "Table A1 (H-Bonds), SER 628 O", "value": 2.84}, {"measurement": "H-bond distance to MASP-2 SER 654 atom O", "setting": "Table A1 (H-Bonds)", "value": 2.84}, {"measurement": "H-bond distance to MASP-2 SER 657 atom O", "setting": "Table A1 (H-Bonds)", "value": 2.81}, {"measurement": "van der Waals contact distance, MASP-2 HIS 483 atom CD2", "value": 3.75}, {"measurement": "van der Waals contact distance, MASP-2 PHE 529 atom CD1", "setting": "Table A2-3", "value": 3.54}, {"measurement": "van der Waals contact distance, MASP-2 TYR 607 atom CD2", "setting": "Table A2-4", "value": 3.89}, {"measurement": "van der Waals contact distance, VAL 653 CG1 to compound atom", "value": 3.9}, {"measurement": "van der Waals contact distance TRP 655 atom CE3", "setting": "Table A2-13, MASP-2 TRP 655 CE3, compound atom in line below", "value": 3.49}, {"measurement": "van der Waals contact distance TRP 655 atom N", "setting": "Table A2-13, MASP-2 TRP 655 N", "value": 3.79}, {"measurement": "van der Waals contact distance, MASP-2 amino acid atom to compound atom", "setting": "Table A2 section before Table A2-8", "value": 3.85}]}
